The text below walks through data of patent US8097440B1, “Engineered microorganisms capable of producing target compounds under anaerobic conditions” (Gevo, Inc., priority 2008, dated 2012).

As usually defined, the Km is the substrate concentration at which the rate is half of its maximum. One may read the kcat/Km as the second-order rate constant that governs catalysis at low substrate concentration.

Numbering of substitutions follows the chain as printed. In names and notes the source's numbering stands.

Data set [1] addresses T1, Escherichia coli KARI (ketol-acid reductoisomerase) Ec_IlvC^his6, wild type IlvC (SEQ ID NO: 13) with his6-tag, SEQ ID NO: 15 (Escherichia coli, UniProt P05793).
T1 sequence (P05793 with tags, fused parts or gaps): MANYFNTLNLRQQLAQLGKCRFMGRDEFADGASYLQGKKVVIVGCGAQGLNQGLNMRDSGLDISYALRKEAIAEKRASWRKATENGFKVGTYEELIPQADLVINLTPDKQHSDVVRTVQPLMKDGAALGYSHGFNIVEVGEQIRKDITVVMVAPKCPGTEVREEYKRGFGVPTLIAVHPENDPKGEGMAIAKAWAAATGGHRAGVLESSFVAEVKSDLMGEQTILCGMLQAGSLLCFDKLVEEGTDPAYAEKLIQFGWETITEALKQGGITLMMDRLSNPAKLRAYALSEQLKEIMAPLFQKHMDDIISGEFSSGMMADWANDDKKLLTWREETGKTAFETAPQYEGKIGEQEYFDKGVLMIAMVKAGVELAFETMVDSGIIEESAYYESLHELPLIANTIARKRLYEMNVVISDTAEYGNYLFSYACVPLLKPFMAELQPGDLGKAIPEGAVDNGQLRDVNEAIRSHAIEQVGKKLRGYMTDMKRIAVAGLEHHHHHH
As to the kind of experiment: KARI cuvette assay, purified Ec_IlvC^his6 (parent / wild type). The data set is classed as biochemical, E. coli. The note with it: purified; acetolactate as substrate. The method, then: KARI cuvette assay: KARI activity was assayed kinetically by monitoring the decrease in NAD(P)H concentration by measuring the absorbance at 340 nm. A reaction buffer was prepared containing 250 mM potassium phosphate pH 7, 1 mM DTT and 10 mM MgCl2. Cell pellets were resuspended (0.25 g wet weight/mL buffer) in 250 mM potassium phosphate (KPi) buffer containing 1 mM DTT and 10 mM MgCl2. The resuspended cells were lysed by sonication for 1 min with a 50% duty cycle and pelleted at 11000×g and 4° C. for 15 min. A reaction mixture consisting of 910 μl reaction buffer, 50 μl acetolactate, and 20 μl lysate was prepared in a cuvette. […]
Only 20% of the enzymes of the recombination library were active on NADH. After screening 1,000 clones using the NADH depletion assay at 340 nm, 26 KARI variants were selected for a rescreen by the high-throughput assay described in Example 14 and eight thereof were expressed in 25 ml LBamp medium in shake flasks according to the protocol for cell growth and protein expression in shake flasks as described in Example 14, purified according to the protocol for purification of KARI enzymes as described in Example 14, and NAD(P)H depletion at 340 nm was measured again. […] The KM values of variants Ec_llvC^2H10-his6 and Ec_llvC^6E6-his6 were measured and the catalytic efficiencies were calculated.

The target in data set [2] is T2, E. coli KARI Ec_IlvC variant Ec_IlvC^S78D-his6 (S78D), SEQ ID NO: 17 (Escherichia coli, UniProt P05793, S78D).
T2 sequence (P05793 with tags, fused parts or gaps S78D): T1 sequence (P05793 with tags, fused parts or gaps) with S78D
The experiment in a line: KARI cuvette assay, purified Ec_IlvC^S78D-his6. The note with it: from 1075 μM to 130 μM. The data set is classed as biochemical. As for the experimental part: (§1) KARI cuvette assay: KARI activity was assayed kinetically by monitoring the decrease in NAD(P)H concentration by measuring the absorbance at 340 nm. A reaction buffer was prepared containing 250 mM potassium phosphate pH 7, 1 mM DTT and 10 mM MgCl2. Cell pellets were resuspended (0.25 g wet weight/mL buffer) in 250 mM potassium phosphate (KPi) buffer containing 1 mM DTT and 10 mM MgCl2. The resuspended cells were lysed by sonication for 1 min with a 50% duty cycle and pelleted at 11000×g and 4° C. for 15 min. A reaction mixture consisting of 910 μl reaction buffer, 50 μl acetolactate, and 20 μl lysate was prepared in a cuvette. The reaction was initiated by addition of 20 μL of 10 mM NAD(P)H. A substrate free control was conducted using reaction buffer without the addition of acetolactate.
(§2) Purification of KARI: Cell pellets used for purification were resuspended in purification buffer A (20 mM Tris, 20 mM imidazol, 100 mM NaCl, 10 mM MgCl2, pH 7.4). KARI was purified by IMAC (Immobilized metal affinity chromatography) over a 1 ml Histrap High Performance (histrap HP) column pre-charged with Nickel (GE Healthcare) using an Akta FPLC system (GE Healthcare). […]

The target in data set [3] is T3, E. coli KARI Ec_IlvC variant Ec_IlvC^P2D1-A1-his6 (Ec_IlvC^P2D1-his6 with K433E), SEQ ID NO: 42 (Escherichia coli, UniProt P05793, A71S/D146G/G185R/K433E/Q110V/R76D/S78D).
T3 sequence (P05793 with tags, fused parts or gaps A71S/R76D/S78D/Q110V/D146G/G185R/K433E): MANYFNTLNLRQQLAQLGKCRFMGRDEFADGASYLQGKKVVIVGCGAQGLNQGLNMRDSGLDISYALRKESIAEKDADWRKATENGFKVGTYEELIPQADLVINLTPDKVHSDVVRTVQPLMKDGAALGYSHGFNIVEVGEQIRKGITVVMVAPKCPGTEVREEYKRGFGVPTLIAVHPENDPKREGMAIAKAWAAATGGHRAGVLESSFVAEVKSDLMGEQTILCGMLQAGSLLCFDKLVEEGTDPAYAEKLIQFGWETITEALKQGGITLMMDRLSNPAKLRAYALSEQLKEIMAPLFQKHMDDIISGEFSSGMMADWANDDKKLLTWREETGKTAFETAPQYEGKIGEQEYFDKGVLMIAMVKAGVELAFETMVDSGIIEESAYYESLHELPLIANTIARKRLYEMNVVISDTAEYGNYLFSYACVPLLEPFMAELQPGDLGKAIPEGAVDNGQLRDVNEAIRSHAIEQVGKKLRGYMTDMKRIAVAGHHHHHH
The experiment in a line: KARI assay, purified Ec_IlvC^P2D1-A1-his6. It counts as biochemical. Particulars: expressed in yeast GEVO1186, purified. The method, then: as §1, §2

The subject of data set [4] is Lactococcus lactis alcohol dehydrogenase Ll_AdhA, SEQ ID NO: 67. The note with it: NADPH as cofactor; cited from earlier work.
Substrate in data set [5]: NC(=O)C1=CN([C@@H]2O[C@H](COP(=O)(O)OP(=O)(O)OC[C@H]3O[C@@H](n4cnc5c(N)ncnc54)[C@H](O)[C@@H]3O)[C@@H](O)[C@H]2O)C=CC1
As to the kind of experiment: KARI cuvette assay, purified Ec_IlvC^Q110V-his6. It counts as biochemical, E. coli. The method, then:
as §1, §2

Substrate in data set [6]: NC(=O)C1=CN([C@@H]2O[C@H](COP(=O)(O)OP(=O)(O)OC[C@H]3O[C@@H](n4cnc5c(N)ncnc54)[C@H](O)[C@@H]3O)[C@@H](O)[C@H]2O)C=CC1
As to the kind of experiment: KARI cuvette assay, purified Ec_IlvC^Q110A-his6. It counts as biochemical, E. coli. The method, then: as §1, §2

The mark [7] stands for this setting: other: purified, acetolactate as substrate.

As for `NC(=O)C1=CN([C@@H]2O[C@H](COP(=O)(O)OP(=O)(O)OC[C@H]3O[C@@H](n4cnc5c(N)ncnc54)[C@H](OP(=O)(O)O)[C@@H]3O)[C@@H](O)[C@H]2O)C=CC1` [NADPH, nicotinamide adenine dinucleotide phosphate], the kcat/KM in data set [1] is recorded as 87,300 M^−1 * s^−1. Besides, the “decrease of KM value compared to wild-type” value in data set [2] is 16 fold. Further, in data set [3], the Km is over 1430 µM and the kcat/KM is on record as under 377 M^−1 * S^−1. For the same molecule, in data set [4], the “activity when tested with NADPH as a cofactor” value is on record as “^adid not show any detectably activity when tested with NADPH as a cofactor”.

B1: E. coli KARI Ec_IlvC variant Ec_IlvC^Q110V-his6 (Q110V), SEQ ID NO: 23 (Escherichia coli K-12; Q110V) (protein)
chain: T1 sequence (P05793 with tags, fused parts or gaps) with Q110V
Regarding B1, the figures for the kcat/Km in data set [5] (setting [7]) and in data set [5] (with NADH) were 24800 M⁻¹ s⁻¹ and 569000 M⁻¹ s⁻¹, respectively.

B2: E. coli KARI Ec_IlvC variant Ec_IlvC^Q110A-his6 (Q110A), SEQ ID NO: 21 (Escherichia coli K-12; Q110A) (protein)
chain: MANYFNTLNLRQQLAQLGKCRFMGRDEFADGASYLQGKKVVIVGCGAQGLNQGLNMRDSGLDISYALRKEAIAEKRASWRKATENGFKVGTYEELIPQADLVINLTPDKAHSDVVRTVQPLMKDGAALGYSHGFNIVEVGEQIRKDITVVMVAPKCPGTEVREEYKRGFGVPTLIAVHPENDPKGEGMAIAKAWAAATGGHRAGVLESSFVAEVKSDLMGEQTILCGMLQAGSLLCFDKLVEEGTDPAYAEKLIQFGWETITEALKQGGITLMMDRLSNPAKLRAYALSEQLKEIMAPLFQKHMDDIISGEFSSGMMADWANDDKKLLTWREETGKTAFETAPQYEGKIGEQEYFDKGVLMIAMVKAGVELAFETMVDSGIIEESAYYESLHELPLIANTIARKRLYEMNVVISDTAEYGNYLFSYACVPLLKPFMAELQPGDLGKAIPEGAVDNGQLRDVNEAIRSHAIEQVGKKLRGYMTDMKRIAVAGLEHHHHH
Turning to B2, the kcat/Km in data set [6] (setting [7]) worked out at 11100 M⁻¹ s⁻¹; in data set [6] (with NADH) it was 302000 M⁻¹ s⁻¹.
